Consider three compounds from patent US11180452B2, “Methods and compositions for selectively inhibiting pathogenic microbes” (priority 2019, dated 2021).

≈ marks a conversion by molar mass, not a printed value. Where “and” joins values, the source holds several entries; their conditions need not be identical. Identical values can stand only once. Like-named read-outs stand apart in the source and are kept apart here.

The subject of data set [1] is NoSpin HepaRG cells. The experiment in a line: HepaRG cytotoxicity, MTT assay EC50. The class given is cell-based, human. As to conditions: Homo sapiens, HepaRG; cytotoxicity EC50, Table 9. As to the method: Additionally, the antimicrobial compounds were analyzed for cytotoxicity. […] We utilized the standard MTT assay (Promega CellTiter 96) and GraphPad Prism 7 software to determine EC50 values for each analogue. Briefly, 20,000 HepG2 cells in 200 μl of the ATCC recommended media were seeded in each well of a 96-well plate with a moisture barrier created in the outermost wells. The cells were allowed to attach overnight at 37° C., and then observed under phase contrast microscopy for proper morphological characteristics. […] Once incubations were complete, the spectrophotometric absorbance of the samples was measured at a wavelength of 595 nm. […] For the HepaRG assay, NoSpin HepaRG™ cells (Lonza, cat #NSHPRG) were thawed and plated with 20,000 cells per well. They were allowed to attach for 4 h (optimal DME profile per Lonza's testing) before dosing following the identical protocol as above.
Background: Tetrazolium dyes change colour on reduction, which living cells bring about.

In data set [2] the test system is Bacillus subtilis. The data set is described as follows: Bacillus subtilis MIC / MBC. As to conditions: for MIC: Bacillus subtilis, Bacillus subtilis (Ehrenberg 1835) Cohn 1872 NRRL: B-571, read-out: MIC. Format: cell-based.
Data set [3] has as its system Burkholderia thailandensis Brett et al ATCC: 700388. The data set is described as follows: microbe, parasite or virus in culture. The class given is cell-based.
The test system of data set [4] is Candida glabrata. The experiment in a line: Candida glabrata MIC / MFC. The class given is cell-based. Particulars: Nakaseomyces glabratus, Candida glabrata #584 (Table 2); read-out: MIC.
The subject of data set [5] is Francisella tularensis subsp. Holarctica Strain LVSR NR-597. The experiment in a line: microbe, parasite or virus in culture. Format: cell-based.
Data set [6] deals with N. gonorrhoeae. The data set is described as follows: N. gonorrhoeae MIC. The class given is cell-based. As to conditions: Neisseria gonorrhoeae.
Data set [7] relates to Bacillus thuringiensis. The class given is cell-based. As to conditions: Bacillus thuringiensis Berliner ATCC: 10792.
The test system of data set [8] is Francisella tularensis strains. The data set is described as follows: microbe, parasite or virus in culture. Format: cell-based.
A short description of data set [9]: Toxicity in mice, body weight over 7 days. Format: in vivo, Balb/c mice. Particulars: for Animal body weight (kg) Day 0 / Animal body weight (kg) Day 1 / Animal body weight (kg) Day 2 / Animal body weight (kg) Day 3 / Animal body weight (kg) Day 4 / Animal body weight (kg) Day 5 / Animal body weight (kg) Day 6 / Animal body weight (kg) Day 7: mice, IP; for Animal body weight (kg) Day 0: Day 0, individual animals; for Animal body weight (kg) Day 1: Day 1, individual animals; for Animal body weight (kg) Day 2: Day 2, individual animals; for Animal body weight (kg) Day 3: Day 3, individual animals; for Animal body weight (kg) Day 4: Day 4, individual animals; for Animal body weight (kg) Day 5: Day 5, individual animals; for Animal body weight (kg) Day 6: Day 6, individual animals; for Animal body weight (kg) Day 7: Day 7, individual animals. From the text:
The vehicle is 40% PEG300 solution in 0.9% NaCl. […] Thus, the compounds are useful for in vivo antimicrobial administration.

For the compound `Nc1ccccc1Sc1c[nH]c2ccc(C(F)(F)F)cc12` [Compound 177C, 2-((5-(trifluoromethyl)-1H-indol-3-yl)thio)aniline], a half-maximal response in [1] (EC50) required 48.2 µg/mL (≈ 156 µM). The MIC in [2] was 0.39 µg/mL (≈ 1.26 µM); in data set [3], above 50 µg/mL; in [4] it was above 50 µg/mL; in data set [5], 3.13 µg/mL (≈ 10.2 µM); in data set [6] (strain #203), 3.13 µg/mL (≈ 10.2 µM); in [6] (strain #205) it was 3.13 µg/mL (≈ 10.2 µM). The compound also gave an MBC in data set [3] above 50 µg/mL.
Turning to `Cc1[nH]c2ccc(Br)cc2c1Sc1ccccc1Br` [Compound 174AZ, 5-bromo-3-((2-bromophenyl)thio)-2-methyl-1H-indole], in [1], the EC50 (as a rule, the concentration needed to bring the measured effect to its halfway point) worked out at 25.8 µg/mL (≈ 65 µM). In addition, the MBC is 4 µg/mL (≈ 10.1 µM) in [2] (Bacillus subtilis NRRL: B-571, minimum bactericidal concentration) and 8 µg/mL (≈ 20.1 µM) in data set [7]. Also, the MIC is 1 µg/mL (≈ 2.52 µM) in data set [2]; 1 µg/mL (≈ 2.52 µM) in [7] (Bacillus thuringiensis, read-out: MIC); above 50 µg/mL in data set [4]; 1 µg/mL (≈ 2.52 µM) in data set [5]; 3.12 µg/mL (≈ 7.87 µM) in data set [6] (strain #167); 4 µg/mL (≈ 10.1 µM) in data set [8] (read-out: F. tularensis BSL-3 MIC, Strain 100). The MIC in [8] (read-out: F. tularensis BSL-3 MIC, strain HN-63) was determined as 2 µg/mL (≈ 5.04 µM); in data set [8] (read-out: F. tularensis BSL-3 MIC, strain LVS) it was 2.67 µg/mL (≈ 6.72 µM); in data set [8] (read-out: F. tularensis BSL-3 MIC, strain MA00-2987), 2 µg/mL (≈ 5.04 µM); in data set [8] (read-out: F. tularensis BSL-3 MIC, strain MO #1), 1.33 µg/mL (≈ 3.35 µM); in data set [8] (read-out: F. tularensis BSL-3 MIC, strain MO #2) it was 1 µg/mL (≈ 2.52 µM); in data set [8] (read-out: F. tularensis BSL-3 MIC, strain MO #3), 2 µg/mL (≈ 5.04 µM). Moreover, the MIC in [8] (read-out: F. tularensis BSL-3 MIC, strain OR-96) stood at 2 µg/mL (≈ 5.04 µM); in data set [8] (read-out: F. tularensis BSL-3 MIC, strain SCHU S4), 4 µg/mL (≈ 10.1 µM); in [8] (read-out: F. tularensis BSL-3 MIC, strain WY-96), 2 µg/mL (≈ 5.04 µM); in data set [8] (read-out: MAX, highest MIC over the Francisella tularensis strains), 4 µg/mL (≈ 10.1 µM); in data set [8] (read-out: MIN, lowest MIC over the Francisella tularensis strains), 1 µg/mL (≈ 2.52 µM). Besides, the MIC50 in data set [8] amounted to 2 µg/mL (≈ 5.04 µM). In data set [9] (6-week-old Balb/c mice, body weight over 7 days, vehicle 40% PEG300 in 0.9% NaCl), the “toxicity in mice by body weight” value is “did not have significant toxicity”. In addition, the “Animal body weight (kg) Day 0” value in data set [9] (0.1 mg/kg, 0.1 mg/kg) was 0.023 kg (2×) and 0.025 kg; in data set [9] (1 mg/kg, 1 mg/kg), 0.024 kg (2×) and 0.025 kg; in data set [9] (10 mg/kg, 10 mg/kg), 0.023 kg (2×) and 0.024 kg. Besides, the “Animal body weight (kg) Day 1” value in data set [9] (0.1 mg/kg, 0.1 mg/kg) was 0.022 kg and 0.024 kg and 0.023 kg; in [9] (1 mg/kg, 1 mg/kg) it was 0.023 kg and 0.024 kg (2×); in data set [9] (10 mg/kg, 10 mg/kg) it was 0.022 kg (2×) and 0.023 kg. The “Animal body weight (kg) Day 2” value in [9] (0.1 mg/kg, 0.1 mg/kg) is 0.022 kg and 0.025 kg and 0.023 kg; in data set [9] (1 mg/kg), 0.024 kg; in data set [9] (10 mg/kg, 10 mg/kg), 0.022 kg and 0.023 kg (2×). For the same compound, the “Animal body weight (kg) Day 3” value in data set [9] (0.1 mg/kg, 0.1 mg/kg) was 0.022 kg and 0.025 kg and 0.023 kg; in [9] (1 mg/kg, 1 mg/kg) it was 0.025 kg and 0.024 kg (2×); in [9] (10 mg/kg, 10 mg/kg), 0.022 kg (2×) and 0.023 kg. Also, the “Animal body weight (kg) Day 4” value in data set [9] (0.1 mg/kg, 0.1 mg/kg) is 0.023 kg (2×) and 0.025 kg; in data set [9] (1 mg/kg, 1 mg/kg), 0.025 kg (2×) and 0.024 kg; in data set [9] (10 mg/kg), 0.023 kg. Besides, the “Animal body weight (kg) Day 5” value is 0.022 kg and 0.025 kg and 0.023 kg in data set [9] (0.1 mg/kg, 0.1 mg/kg); 0.025 kg and 0.023 kg and 0.024 kg in [9] (1 mg/kg, 1 mg/kg); 0.023 kg in data set [9] (10 mg/kg). Besides, the “Animal body weight (kg) Day 6” value in data set [9] (0.1 mg/kg, 0.1 mg/kg) is 0.022 kg and 0.025 kg and 0.023 kg; in data set [9] (1 mg/kg, 1 mg/kg) it was 0.025 kg and 0.024 kg (2×); in [9] (10 mg/kg, 10 mg/kg) it was 0.022 kg (2×) and 0.023 kg. Moreover, the “Animal body weight (kg) Day 7” value in data set [9] (0.1 mg/kg, 0.1 mg/kg) is 0.022 kg (2×) and 0.025 kg; in [9] (1 mg/kg, 1 mg/kg), 0.025 kg and 0.023 kg and 0.024 kg; in data set [9] (10 mg/kg, 10 mg/kg), 0.023 kg (2×) and 0.022 kg.
In turn, `Oc1ccccc1Sc1c[nH]c2ccc(C(F)(F)F)cc12` [Compound 177A, 2-((5-(trifluoromethyl)-1H-indol-3-yl)thio)phenol] showed a concentration for a half-maximal effect (EC50) in [1] of 24.1 µg/mL (≈ 77.9 µM). The MIC in [2] was 0.39 µg/mL (≈ 1.26 µM); in [3] it was above 50 µg/mL; in data set [4], above 50 µg/mL; in data set [5] it was 0.78 µg/mL (≈ 2.52 µM); in [6] (strain #203), 3.13 µg/mL (≈ 10.1 µM); in data set [6] (strain #205) it was 3.13 µg/mL (≈ 10.1 µM). The compound further came in with an MBC in data set [3] above 50 µg/mL.
